# From publication PMC11836358 (Nature Communications, 2025)
# Where two headings read alike, the source gives them in different places.
# B1: BmrA E504A mutant (Bacillus subtilis multidrug ABC transporter) (natural protein)
# chain: MPTKKQKSKSKLKPFFALVRRTNPSYGKLAFALALSVVTTLVSLLIPLLTKQLVDGFSMSNLSGTQIGLIALVFFVQAGLSAYATYALNYNGQKIISGLRELLWKKLIKLPVSYFDTNASGETVSRVTNDTMVVKELITTHISGFITGIISVIGSLTILFIMNWKLTLLVLVVVPLAALILVPIGRKMFSISRETQDETARFTGLLNQILPEIRLVKASNAEDVEYGRGKMGISSLFKLGVREAKVQSLVGPLISLVLMAALVAVIGYGGMQVSSGELTAGALVAFILYLFQIIMPMGQITTFFTQLQKSIGATERMIEILAEEEEDTVTGKQIENAHLPIQLDRVSFGYKPDQLILKEVSAVIEAGKVTAIVGPSGGGKTTLFKLLERFYSPTAGTIRLGDEPVDTYSLESWREHIGYVSQESPLMSGTIRENICYGLERDVTDAEIEKAAEMAYALNFIKELPNQFDTEVGERGIMLSGGQRQRIAIARALLRNPSILMLDAATSSLDSQSEKSVQQALEVLMEGRTTIVIAHRLSTVVDADQLLFVEKGEITGRGTHHELMASHGLYRDFAEQQLKMNADLENKAG
# notes: BmrA, efflux pump of Bacillus subtilis, type-IV MDR ABC transporter; each monomer has 1 TMD and 1 NBD; Homodimer; the plasmid pET15b encodes the mutant fused to a 6-histidine tag at the N-terminal; also called E504A^apo; E504A^R6G; source: E. coli C43(DE3)∆AcrB, pET15b; membranes solubilised in Triton X100, purified (two Ni-NTA steps, Superdex 200) in DDM/sodium cholate
# Legend:
# BmrA [1] = molecular target: T1, BmrA (Bacillus subtilis, UniProt O06967, E504A); assay: biochemical
# BmrA [2] = molecular target: T1, BmrA; assay: biochemical; remark: listed apart in the source
# [3] = molecular target: the molecule itself; assay: cryo-EM structure; purified BmrA E504A at 25 µM in 20 mM HEPES-NaOH pH 7.5, 100 mM NaCl, DDM/sodium cholate; 0, 25, 70, 100 µM or 5 mM ATP-Mg2+, with or without 100 µM R6G, or with Hœchst33342; inward-facing and outward-facing dimers reconstructed
Molecule,Kd (BmrA [2]) [µM],further results
Nc1ncnc2c1ncn2[C@@H]1O[C@H](COP(=O)(O)OP(=O)(O)OP(=O)(O)O)[C@@H](O)[C@H]1O [ATP],–,Kd (BmrA [1]): 154 ± 49 µM
COc1cccc2c1C(=O)c1c(O)c3c(c(O)c1C2=O)C[C@@](O)(C(=O)CO)C[C@@H]3O[C@H]1C[C@H](N)[C@H](O)[C@H](C)O1 [Doxorubicin],7.3 ± 2.2,–
CCOc1ccc(-c2nc3cc(-c4nc5cc(N6CCN(C)CC6)ccc5[nH]4)ccc3[nH]2)cc1 [Hœchst33342],9.6 ± 1.3,–
B1,–,binding result [3]: binds
